{
  "source": "patent US8445511B2",
  "about": "“Quinoline or quinoxaline derivatives for treating neurodegenerative diseases” (Centre National de la Recherche Scientifique (SNRS), priority 2008, dated 2013)",
  "key": {"[1]": {"system": "fetal dopaminergic neurons in culture", "assay": "Neuroprotection and differentiation of dopaminergic (TH+) neurons in primary culture of rat embryo mesencephalon (spontaneous degeneration model)", "assay_type": "cell-based", "set-up": "key to Diff (qualitative assessment of neuron differentiation): + indicates that the neurons have a morphology similar to that of the control; ++ and +++ indicate the presence of neurons whose extensions are longer and more numerous than the control neurons; ++ and +++ indicate the presence of neurons whose extensions are longer and more numerous than the control neurons; − indicates that the neurons have neurites that are shorter and less numerous than the control neurons", "description": "Dissection consists in extracting the embryos from the uterus of a rat at fifteen days of gestation. The brain of each embryo is then dissected under a binocular magnifier in order to extract the ventral mesencephalon.\nThe mesencephalons are gathered in a flask containing 2 ml of L15 medium and then mechanically dissociated (30 times), and then 5 ml of L15 medium are added. The suspension is left to rest for 8 minutes. 5 ml of the supernatant are recovered in a new flask and the cells are dissociated again (30 times). 5 ml of L15 are again added and the suspension is left to rest for 8 minutes. 5 ml of supernatant are added to the preceding. The cells thus extracted are then centrifuged for 5 minutes at 1,000 rpm. The cell pellet is taken up in Neurobasal medium supplemented with 1% B27, 1% glutamine and 1% penicillin/streptomycin mixture. The cells are then inoculated at the appropriate dilution (0.6 embryo per well on a 24-well plate and 0.4 per well on a 48-well plate). The cultures are incubated at 37° C. in a humid atmosphere enriched with 5% CO2 in a 24- or 48-well plate.\nAfter 24 hours, two-thirds of the medium of each well is replaced by new medium enriched with the compound of the invention to test at the appropriate dilution. The medium is replaced in the same way after 4 days of culture.\n(§1) At 8 days of culture, the cells are fixed by a 4% formaldehyde solution and then washed three times with PBS. The cells then undergo several immunohistochemistry procedures: • anti-tyrosine hydroxylase (TH) visualized by a secondary antibody coupled to a fluorochrome that emits in the red spectrum (Cy3). • anti-MAP2 (MAP=microtubule-associated protein) (neuron marker) visualized by a secondary antibody coupled to a fluorochrome that emits in the green spectrum (alexa488). • DAPI (4′,6-diamidino-2-phenylindole), a nuclear marker that emits in the blue spectrum.\n(§2) Neuroprotection is evaluated by counting TH positive neurons directly under the microscope or MAP2 positive on images, at 15 images per well, expressed as a percentage of the untreated control. The experiments include three wells per condition. Three independent experiments are carried out under these conditions. Total neurite length per cell calculated by the Neurite Outgrowth software by Explora Nova on 20 neurons photographed independently per well gives an indication of the state of maturation of the dopaminergic neurons.\nThe compounds of the invention were tested on a model of spontaneous degeneration of dopaminergic neurons in culture.\nThis model consists of culturing cells of the ventral mesencephalon of rat embryo. This part of the brain in culture contains dopaminergic neurons and other primarily GABAergic neurons. These cultures are also composed of glial cells, namely astrocytes, oligodendrocytes and microglia. This is a model of spontaneous degeneration of dopaminergic neurons which mimics certain aspects of Parkinson's disease.\nThe neuroprotective effect of the compounds of the invention was evaluated by counting dopaminergic neurons (TH^+) marked by tyrosine hydroxylase (TH) immunohistochemistry after 8 days of culture. Thus the compounds were evaluated at 1 nM, 10 nM, 100 nM and 1 μM and were compared with the activity of dibutyryl cyclic AMP (db-cAMP) used as the reference product.\nIn order to evaluate more quantitatively the activity of the compounds of the invention, neurite growth per cell was measured using the Neurite Outgrowth software developed by Explora Nova. A minimum of 60 neurons per condition were photographed and studied, and the results were then averaged and normalized by the number of neurons considered."}, "dopaminergic neurons": {"system": "dopaminergic neurons", "assay": "Measurement of tritiated dopamine reuptake in primary mesencephalic cultures", "assay_type": "cell-based, rat", "conditions": "12 days of culture; 1 nM, 10 nM, 100 nM and 1 μM; FIG. 4", "description": "The primary cultures are treated and cultivated as previously indicated for 12 days in a 24-well plate. The medium is then replaced by a medium lacking serum and enriched with glucose (PBS+5 mM glucose). One well is treated with GBR (5 μM) and will be used to determine nonspecific reuptake. The cells are incubated in this medium for 10 minutes. 50 μl of tritiated dopamine in solution (20 μl of 1 mCi/ml ^3H-dopamine in 1 ml PBS) is added in each well and the cells are incubated for 20 minutes at 37° C.\nThe wells are then washed twice with PBS, and then 500 μl distilled water is added. The cells are scraped and the liquid transferred to scintillation vials containing 7 ml scintillation liquid (Biodegradable Counting Scintillant-liquid scintillation spectroscopy, BCS), well by well. The samples are run through the scintillation counter.\nNeurons at 12 days of culture are then cultivated for a short time in the presence of tritiated dopamine (H^3-DA). After washing, the cells are lysed and intraneuronal H^3-DA is recovered and assayed by scintillation counter."}, "MAP2+ neurons": {"system": "MAP2+ neurons", "assay": "Count of MAP2+ neurons in primary mesencephalic cultures (phenotypic specificity)", "assay_type": "cell-based, rat", "conditions": "DIV12; 10 nM and 100 nM; FIG. 5", "from_the_text": "as §1\nas §2, with “neurons. […]” for “neurons.”\nFirst, the neurons are cultured and maintained at DIV12. […] The neurons are then counted via image with X20 enlargement at 15 images per well."}},
  "note": "“Also recorded” adds a separate entry of the source.",
  "data": [
    {"compound": "C#CC(O)CCCCCCCCCCCCC#Cc1ccc2ccccc2n1", "note": "(stereo not shown) [Compound N3, 17-(quinolin-2-yl)heptadec-1,16-diyn-3-ol]", "values": [
      {"measurement": "dose-response of effect on survival of dopaminergic neurons", "setting": "[1]; 1 nM, 10 nM, 100 nM and 1 μM, FIG. 2", "result": "dose-dependent"},
      {"measurement": "Diff (qualitative assessment of neuron differentiation)", "setting": "[1]; 100 nM, dopaminergic neurons in culture", "result": "+++"},
      {"measurement": "viability at 0.1 µM", "setting": "[1]; Rattus norvegicus, Neuron, 192 h, 100 nM, survival of TH+ dopaminergic neurons after 8 days of culture, read-out: % Neurons relative to the control ±SEM", "result": "154 ± 4.1", "unit": "%"},
      {"measurement": "neuroprotective activity (percentage of survival of dopaminergic neurons), in words, versus reference product db-cAMP", "setting": "[1]; dopaminergic neurons, 8 days of culture", "result": "equal to or greater than that of the reference product; also recorded: the most active compound"},
      {"measurement": "concentration of maximum effect on survival of dopaminergic neurons", "setting": "[1]; dose-response curve, FIG. 2", "result": 100, "unit": "nM"},
      {"measurement": "reuptake of tritiated dopamine by dopaminergic neurons versus untreated control", "setting": "dopaminergic neurons", "result": "increased"},
      {"measurement": "survival of total neurons of the culture (MAP2+ neurons) versus untreated control", "setting": "MAP2+ neurons", "result": "increased"}
    ]}
  ]
}
